Here are results for 16 compounds from US12264156B2, “Compounds and pharmaceutical compositions thereof for the treatment of diseases” (GALAPAGOS NV, priority 2018, dated 2025).

The IC50 is the concentration needed to halve the response being measured. Lower therefore signals inhibition by little substance. For orientation: EC50 means the concentration giving half of the maximal effect.

One assay addresses T1, SIK3 (Homo sapiens, UniProt Q9Y2K2).
T1 construct: purchased SignalChem S12-11G-100
The assay is described as follows: ADP-Glo kinase assay, SIK3. It is filed as biochemical. Conditions: ADP-Glo SIK kinase assay. The method in brief:
(§1)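 Enzyme–substrate mix was started with ATP and incubated 120 min at RT. ADP formed was quantified by ADP-Glo: 40 min ATP depletion, then 30 min detection reagent converting ADP to ATP for luciferase luminescence, which rises with kinase activity. Controls: 1% DMSO and 10 μM staurosporine (final).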
On the technique in general: ADP-Glo turns the ADP formed in a reaction into a luminescent signal.

Assay [1] concerns LPS-induced TNFα in monocytes. The assay is described as follows: Monocytes assay: LPS-triggered TNFα (ELISA). Type of assay: cell-based, human. The settings on record: Homo sapiens, Monocyte, LPS 200 ng/mL, supernatant after 4 h. The method in brief:
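Human CD14+ monocytes from buffy-coat PBMCs (magnetic bead selection) were seeded at 100 000 cells/well and pretreated with compound for 1 h at 37° C (0.2% DMSO). They were then stimulated with 200 ng/mL LPS for 4 h, and supernatant TNFα was measured by chemiluminescent sandwich ELISA as percent inhibition.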
Background: In an ELISA, binding on a coated surface is turned into a signal by an enzyme label.

Assay [2] has as its system LPS triggered IL-10 secretion in monocytes. Briefly: Monocytes assay: LPS-triggered IL-10 (ELISA). Conditions: LPS 200 ng/mL, supernatant after 4 h, maximal fold change vs LPS only. It is filed as cell-based, human. The method in brief: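 Human CD14+ monocytes, magnetically isolated from buffy-coat PBMCs, were seeded at 100 000 cells/well and preincubated with compound for 1 h at 37° C (0.2% DMSO). LPS was then added at a final 200 ng/mL for 4 h. Supernatant IL-10 was quantified by chemiluminescent sandwich ELISA against a standard curve.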

For a further assay, the target named is T2, SIK1 (Homo sapiens, UniProt P57059).
T2 construct: purchased Carna Biosciences 02-131
The assay is described as follows: ADP-Glo kinase assay, SIK1. Type of assay: biochemical. The settings on record: ADP-Glo SIK kinase assay. The method in brief:
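Wells with 1% DMSO or 10 μM staurosporine (final) define the control window. The kinase reaction with substrate and ATP runs 120 min at RT, followed by ADP-Glo detection: ATP depletion (40 min) and ADP-derived luminescence (30 min).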

For a further assay, the target named is T3, SIK2 (Homo sapiens, UniProt Q9H0K1).
T3 construct: purchased ThermoFisher Scientific PV4792
Briefly: ADP-Glo kinase assay, SIK2. It is filed as biochemical. The settings on record: ADP-Glo SIK kinase assay. The procedure, abridged:
as §1

T3 sequence (Q9H0K1 whole entry): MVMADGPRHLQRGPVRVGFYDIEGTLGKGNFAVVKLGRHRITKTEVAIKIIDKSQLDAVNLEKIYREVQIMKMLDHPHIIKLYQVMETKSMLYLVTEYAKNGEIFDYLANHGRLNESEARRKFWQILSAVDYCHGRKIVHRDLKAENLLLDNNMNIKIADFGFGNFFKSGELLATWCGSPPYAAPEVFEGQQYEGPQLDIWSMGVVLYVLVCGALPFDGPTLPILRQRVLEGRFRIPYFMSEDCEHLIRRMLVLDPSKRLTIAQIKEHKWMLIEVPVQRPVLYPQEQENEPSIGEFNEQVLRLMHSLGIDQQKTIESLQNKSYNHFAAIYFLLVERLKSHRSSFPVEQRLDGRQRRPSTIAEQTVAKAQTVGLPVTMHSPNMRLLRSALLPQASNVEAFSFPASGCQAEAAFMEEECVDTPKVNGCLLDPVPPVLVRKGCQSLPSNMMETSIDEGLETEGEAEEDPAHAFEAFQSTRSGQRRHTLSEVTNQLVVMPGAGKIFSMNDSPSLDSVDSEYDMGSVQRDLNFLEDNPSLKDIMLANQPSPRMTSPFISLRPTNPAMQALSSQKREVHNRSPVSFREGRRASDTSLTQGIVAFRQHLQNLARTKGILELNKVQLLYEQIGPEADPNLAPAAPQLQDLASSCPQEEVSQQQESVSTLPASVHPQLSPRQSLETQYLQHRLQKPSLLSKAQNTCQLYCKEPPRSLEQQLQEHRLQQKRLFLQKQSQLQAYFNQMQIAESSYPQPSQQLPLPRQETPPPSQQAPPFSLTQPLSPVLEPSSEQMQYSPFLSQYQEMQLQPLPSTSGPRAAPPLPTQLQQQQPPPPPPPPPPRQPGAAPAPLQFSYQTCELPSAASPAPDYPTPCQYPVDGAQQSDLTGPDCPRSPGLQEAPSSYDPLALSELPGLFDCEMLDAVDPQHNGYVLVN
T2 sequence (P57059 whole entry): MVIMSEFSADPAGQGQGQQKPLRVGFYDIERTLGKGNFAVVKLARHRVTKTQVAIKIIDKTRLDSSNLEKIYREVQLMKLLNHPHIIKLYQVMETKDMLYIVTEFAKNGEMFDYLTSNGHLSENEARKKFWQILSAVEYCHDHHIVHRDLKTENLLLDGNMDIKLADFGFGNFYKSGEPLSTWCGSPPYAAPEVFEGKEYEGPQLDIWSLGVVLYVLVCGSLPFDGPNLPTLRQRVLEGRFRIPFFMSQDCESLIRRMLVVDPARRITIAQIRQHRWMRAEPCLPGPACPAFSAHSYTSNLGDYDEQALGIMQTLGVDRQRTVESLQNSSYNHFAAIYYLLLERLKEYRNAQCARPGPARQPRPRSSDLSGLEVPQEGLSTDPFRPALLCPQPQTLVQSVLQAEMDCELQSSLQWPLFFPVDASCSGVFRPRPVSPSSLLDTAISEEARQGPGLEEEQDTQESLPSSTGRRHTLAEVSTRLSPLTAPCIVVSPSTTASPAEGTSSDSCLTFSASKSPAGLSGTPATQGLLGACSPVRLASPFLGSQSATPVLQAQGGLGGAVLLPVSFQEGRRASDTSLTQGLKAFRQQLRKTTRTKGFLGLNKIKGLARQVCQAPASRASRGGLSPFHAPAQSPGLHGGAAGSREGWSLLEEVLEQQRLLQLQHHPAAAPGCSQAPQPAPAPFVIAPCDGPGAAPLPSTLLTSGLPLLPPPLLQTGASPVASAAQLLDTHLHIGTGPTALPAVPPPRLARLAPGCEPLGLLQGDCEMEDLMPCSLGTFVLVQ
T1 sequence (Q9Y2K2 whole entry): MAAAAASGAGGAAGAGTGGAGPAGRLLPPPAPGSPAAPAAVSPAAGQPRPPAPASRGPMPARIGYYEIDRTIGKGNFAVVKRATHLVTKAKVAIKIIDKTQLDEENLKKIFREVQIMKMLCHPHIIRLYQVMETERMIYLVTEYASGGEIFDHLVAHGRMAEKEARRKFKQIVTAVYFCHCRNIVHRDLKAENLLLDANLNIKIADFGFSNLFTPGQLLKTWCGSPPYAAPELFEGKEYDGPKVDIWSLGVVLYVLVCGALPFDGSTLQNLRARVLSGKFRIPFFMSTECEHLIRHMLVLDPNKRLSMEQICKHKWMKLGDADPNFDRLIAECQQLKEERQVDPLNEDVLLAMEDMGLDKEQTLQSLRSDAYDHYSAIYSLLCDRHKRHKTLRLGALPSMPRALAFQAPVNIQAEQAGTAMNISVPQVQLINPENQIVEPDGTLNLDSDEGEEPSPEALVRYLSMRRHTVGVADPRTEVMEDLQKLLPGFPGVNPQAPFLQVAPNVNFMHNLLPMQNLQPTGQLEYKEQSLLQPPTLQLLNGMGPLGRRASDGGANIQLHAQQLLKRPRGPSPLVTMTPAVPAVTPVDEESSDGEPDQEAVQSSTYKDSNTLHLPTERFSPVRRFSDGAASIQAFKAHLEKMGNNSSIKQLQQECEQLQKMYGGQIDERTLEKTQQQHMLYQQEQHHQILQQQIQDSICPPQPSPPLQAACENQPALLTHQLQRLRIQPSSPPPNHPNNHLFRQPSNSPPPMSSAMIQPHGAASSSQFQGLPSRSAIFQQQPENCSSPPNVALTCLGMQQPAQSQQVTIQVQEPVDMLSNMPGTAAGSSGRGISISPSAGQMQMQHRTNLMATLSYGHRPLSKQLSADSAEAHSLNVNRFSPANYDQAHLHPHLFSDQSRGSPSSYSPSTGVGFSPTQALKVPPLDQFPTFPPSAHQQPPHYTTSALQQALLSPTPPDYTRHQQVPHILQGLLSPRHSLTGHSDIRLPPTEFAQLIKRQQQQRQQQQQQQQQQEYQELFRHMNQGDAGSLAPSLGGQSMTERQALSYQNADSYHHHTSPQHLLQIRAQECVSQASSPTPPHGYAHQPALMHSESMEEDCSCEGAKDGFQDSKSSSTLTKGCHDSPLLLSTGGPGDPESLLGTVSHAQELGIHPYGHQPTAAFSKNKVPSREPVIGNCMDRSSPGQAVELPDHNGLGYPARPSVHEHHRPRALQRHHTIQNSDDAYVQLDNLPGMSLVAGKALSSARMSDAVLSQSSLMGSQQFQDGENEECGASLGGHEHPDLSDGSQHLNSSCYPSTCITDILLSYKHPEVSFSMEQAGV

As for `COc1cc(-c2cnc3cc(OCCCN4CC5CCC(C4)O5)ccn23)cc(OC(F)F)c1C(=O)NC1CC1` [compound 291, N-cyclopropyl-2-(difluoromethoxy)-6-methoxy-4-[7-[3-(8-oxa-3-azabicyclo[3.2.1]octan-3-yl)propoxy]imidazo[1,2-a]pyridin-3-yl]benzamide], the IC50 against SIK3 fell in the range of 0.01 to 10 nM; at SIK1 it was 10 to 100 nM; against SIK2, 0.01 to 10 nM. The compound also gave a 50% effective concentration (EC50) in assay [1] (4 h) of 0.1 to 100 nM. In addition, in assay [2], the “IL-10 FCmax median” value is “+++ (>4.5)”.

Regarding `COc1cc(-c2cnc3cc(OC[C@@H]4CCNC4)ccn23)cc(OC(F)F)c1C(=O)NC1CC1` [Cpd 334, N-cyclopropyl-2-(difluoromethoxy)-6-methoxy-4-[7-[[(3R)-pyrrolidin-3-yl]methoxy]imidazo[1,2-a]pyridin-3-yl]benzamide], the half-maximal inhibitory concentration (IC50) against SIK3 is 0.01 to 10 nM; against SIK1, 10 to 100 nM; on SIK2 it was 0.01 to 10 nM. The concentration giving a half-maximal response (EC50) in assay [1] (4 h) was 100 to 1000 nM. Also, the “IL-10 FCmax median” value in assay [2] is given as “++ (>1.5-4.5)”.

For the compound `COc1cc(-c2cnc3cc(OCCC4CCCN4C(C)C)ccn23)cc(OC(F)F)c1C(=O)NC1CC1` (centres unmarked) [compound 301, N-cyclopropyl-2-(difluoromethoxy)-4-[7-[2-(1-isopropylpyrrolidin-2-yl)ethoxy]imidazo[1,2-a]pyridin-3-yl]-6-methoxy-benzamide], the results for the IC50 against SIK3, on SIK1 and against SIK2 were 0.01 to 10 nM, 10 to 100 nM and 0.01 to 10 nM, respectively. Further, the half-maximal effective concentration (EC50) in assay [1] (4 h) is 0.1 to 100 nM. Also, in assay [2], the “IL-10 FCmax median” value is given as “+++ (>4.5)”.

With `COc1cc(-c2cnc3cc(OCCCN4CC(O)C(F)(F)C4)ccn23)cc(OC(F)F)c1C(=O)NC1CC1` (centres unmarked) [compound 345, N-cyclopropyl-4-[7-[3-(3,3-difluoro-4-hydroxy-pyrrolidin-1-yl)propoxy]imidazo[1,2-a]pyridin-3-yl]-2-(difluoromethoxy)-6-methoxy-benzamide], the half-maximal inhibitory concentration (IC50) on SIK3 was 0.01 to 10 nM; against SIK1, 10 to 100 nM; against SIK2 it was 0.01 to 10 nM. The same compound came in with an EC50 in assay [1] (4 h) of 0.1 to 100 nM. The “IL-10 FCmax median” value in assay [2] was “+++ (>4.5)”.

Regarding `CCOC(=O)C1(c2ccccc2)CCN(CCCOc2ccn3c(-c4cc(OC)c(C(=O)NC5CC5)c(OC(F)F)c4)cnc3c2)CC1` [compound 378, ethyl 1-[3-[3-[4-(cyclopropylcarbamoyl)-3-(difluoromethoxy)-5-methoxy-phenyl]imidazo[1,2-a]pyridin-7-yl]oxypropyl]-4-phenyl-piperidine-4-carboxylate], the concentration for half-maximal inhibition (IC50) against SIK3 fell in the range of 0.01 to 10 nM; against SIK1, 10 to 100 nM; against SIK2 it was 0.01 to 10 nM. In assay [1], this compound came in with a concentration giving a half-maximal response (EC50) of 0.1 to 100 nM. In addition, the “IL-10 FCmax median” value in assay [2] is listed as “++ (>1.5-4.5)”.

In the case of `COc1cc(-c2cnc3cc(OC[C@@H]4CCN(C(C)C)C4)ccn23)cc(OC(F)F)c1C(=O)NC1CC1` [compound 337, N-cyclopropyl-2-(difluoromethoxy)-4-[7-[[(3R)-1-isopropylpyrrolidin-3-yl]methoxy]imidazo[1,2-a]pyridin-3-yl]-6-methoxy-benzamide], the IC50 against SIK3 lay in the range of 0.01 to 10 nM; against SIK1 it was 10 to 100 nM; against SIK2, 0.01 to 10 nM. Besides, the 50% effective concentration (EC50) in assay [1] (4 h) was in the range of 0.1 to 100 nM. Also, the “IL-10 FCmax median” value in assay [2] was “+++ (>4.5)”.

Regarding `COc1cc(-c2cnc3cc(OCCCN4CC5(CCC5)C4)ccn23)cc(OC(F)F)c1C(=O)NC1CC1` [compound 293, 4-[7-[3-(2-azaspiro[3.3]heptan-2-yl)propoxy]imidazo[1,2-a]pyridin-3-yl]-N-cyclopropyl-2-(difluoromethoxy)-6-methoxy-benzamide], the figures for the IC50 at SIK3, against SIK1 and at SIK2 were 0.01 to 10 nM, 10 to 100 nM and 0.01 to 10 nM, respectively. The concentration giving a half-maximal response (EC50) in assay [1] (4 h) was 0.1 to 100 nM. Besides, the “IL-10 FCmax median” value in assay [2] is “+++ (>4.5)”.

For the compound `COc1cc(-c2cnc3cc(OC[C@H]4CCCN(C(C)C)C4)ccn23)cc(OC(F)F)c1C(=O)NC1CC1` [compound 329, N-cyclopropyl-2-(difluoromethoxy)-4-[7-[[(3S)-1-isopropyl-3-piperidyl]methoxy]imidazo [1,2-a]pyridin-3-yl]-6-methoxy-benzamide], the IC50 was in the range of 0.01 to 10 nM against SIK3, 10 to 100 nM against SIK1 and 0.01 to 10 nM on SIK2. The same compound had an EC50 in assay [1] (4 h) of 0.1 to 100 nM. Also, in assay [2], the “IL-10 FCmax median” value is given as “+++ (>4.5)”.

For the compound `COc1cc(-c2cnc3cc(OCCCN4CCC(F)(CO)CC4)ccn23)cc(OC(F)F)c1C(=O)NC1CC1` [compound 360, N-cyclopropyl-2-(difluoromethoxy)-4-[7-[3-[4-fluoro-4-(hydroxymethyl)-1-piperidyl]propoxy]imidazo [1,2-a]pyridin-3-yl]-6-methoxy-benzamide], the IC50 at SIK3 was in the range of 0.01 to 10 nM; against SIK1, 10 to 100 nM; against SIK2, 0.01 to 10 nM. Further, in assay [1] (4 h), the 50% effective concentration (EC50) lay within 0.1 to 100 nM. In assay [2], the “IL-10 FCmax median” value was “++ (>1.5-4.5)”.

For `COc1cc(-c2cnc3cc(OC[C@@H]4CCCN(CCO)C4)ccn23)cc(OC(F)F)c1C(=O)NC1CC1` [Cpd 370, N-cyclopropyl-2-(difluoromethoxy)-4-[7-[[(3R)-1-(2-hydroxyethyl)-3-piperidyl]methoxy]imidazo [1,2-a]pyridin-3-yl]-6-methoxy-benzamide], the IC50 fell in the range of 0.01 to 10 nM on SIK3, 10 to 100 nM against SIK1 and 0.01 to 10 nM against SIK2. The compound further showed an EC50 in assay [1] (4 h) of 100 to 1000 nM. Also, the “IL-10 FCmax median” value in assay [2] was “++ (>1.5-4.5)”.

For `COc1cc(-c2cnc3cc(OC[C@@H]4CCCN(C(C)C)C4)ccn23)cc(OC(F)F)c1C(=O)NC1CC1` [compound 338, N-cyclopropyl-2-(difluoromethoxy)-4-[7-[[(3R)-1-isopropyl-3-piperidyl]methoxy]imidazo [1,2-a]pyridin-3-yl]-6-methoxy-benzamide], the IC50 against SIK3 is 0.01 to 10 nM; on SIK1, 10 to 100 nM; against SIK2, 0.01 to 10 nM. Moreover, in assay [1] (4 h), the concentration giving a half-maximal response (EC50) lay in the range of 0.1 to 100 nM. In assay [2], the “IL-10 FCmax median” value is “++ (>1.5-4.5)”.

For the compound `COc1cc(-c2cnc3cc(OC[C@H]4CCCNC4)ccn23)cc(OC(F)F)c1C(=O)NC1CC1` [Cpd 315, N-cyclopropyl-2-(difluoromethoxy)-6-methoxy-4-[7-[[(3S)-3-piperidyl]methoxy]imidazo[1,2-a]pyridin-3-yl]benzamide], the values for the IC50 against SIK3, against SIK1 and on SIK2 were 0.01 to 10 nM, 10 to 100 nM and 0.01 to 10 nM, respectively. The same compound showed an EC50 in assay [1] (4 h) of 100 to 1000 nM. The “IL-10 FCmax median” value in assay [2] is “++ (>1.5-4.5)”.

With `COc1cc(-c2cnc3cc(OCC4COCCN4C(C)C)ccn23)cc(OC(F)F)c1C(=O)NC1CC1` (centres unmarked) [compound 283, N-cyclopropyl-2-(difluoromethoxy)-4-[7-[(4-isopropylmorpholin-3-yl)methoxy]imidazo[1,2-a]pyridin-3-yl]-6-methoxy-benzamide], the figures for the IC50 against SIK3, on SIK1 and on SIK2 were 0.01 to 10 nM, 10 to 100 nM and 10 to 100 nM, respectively. In assay [1] (4 h), this compound had an EC50 of 100 to 1000 nM. Besides, in assay [2], the “IL-10 FCmax median” value is given as “+++ (>4.5)”.

Regarding `CCOC(=O)C1CCN(CCCOc2ccn3c(-c4cc(OC)c(C(=O)NC5CC5)c(OC(F)F)c4)cnc3c2)CC1` [compound 377, ethyl 1-[3-[3-[4-(cyclopropylcarbamoyl)-3-(difluoromethoxy)-5-methoxy-phenyl]imidazo[1,2-a]pyridin-7-yl]oxypropyl]piperidine-4-carboxylate], the IC50 at SIK3 lay within 0.01 to 10 nM; at SIK1, 10 to 100 nM; against SIK2, 0.01 to 10 nM. The same compound came in with an EC50 in assay [1] (4 h) of 0.1 to 100 nM. For the same compound, the “IL-10 FCmax median” value in assay [2] is “++ (>1.5-4.5)”.

`COc1cc(-c2cnc3cc(OCCCN4CCC(O)C4)ccn23)cc(OC(F)F)c1C(=O)NC1CC1` (centres unmarked) [compound 319, N-cyclopropyl-2-(difluoromethoxy)-4-[7-[3-(3-hydroxypyrrolidin-1-yl)propoxy]imidazo[1,2-a]pyridin-3-yl]-6-methoxy-benzamide]: the concentration for half-maximal inhibition (IC50) fell in the range of 0.01 to 10 nM on SIK3, 10 to 100 nM at SIK1 and 0.01 to 10 nM on SIK2. The compound further registered an EC50 in assay [1] (4 h) of 100 to 1000 nM. Also, in assay [2], the “IL-10 FCmax median” value is “++ (>1.5-4.5)”.

`CCOC(=O)C1(O)CCN(CCCOc2ccn3c(-c4cc(OC)c(C(=O)NC5CC5)c(OC(F)F)c4)cnc3c2)CC1` [compound 381, ethyl 1-[3-[3-[4-(cyclopropylcarbamoyl)-3-(difluoromethoxy)-5-methoxy-phenyl]imidazo[1,2-a]pyridin-7-yl]oxypropyl]-4-hydroxy-piperidine-4-carboxylate]: the values for the concentration for half-maximal inhibition (IC50) against SIK3, on SIK1 and on SIK2 were 0.01 to 10 nM, 10 to 100 nM and 0.01 to 10 nM, respectively. Besides, the 50% effective concentration (EC50) in assay [1] (4 h) is 0.1 to 100 nM. The “IL-10 FCmax median” value in assay [2] was “++ (>1.5-4.5)”.
